Assay results from US7045627B2, “Dichlorinated heterocyclic compounds and methods of synthesis” (R.T. Alamo Ventures I, LLC, priority 2002, dated 2006).

Tested on: PDE1
Test: PDE1 enzyme inhibition assay
Assay type: biochemical
Conditions: PDE1 partially purified from bovine heart; 25° C.; varying concentrations; 1% DMSO vehicle
From the text: In this example, dichloroflosequinan was subjected to biochemical enzyme assays to determine its respective percent inhibition of a variety of phosphodiesterases (PDE1–PDE6). The methods used have been adapted from those described in the scientific literature, see Hidaka and Asano “Human blood platelet 3′:5′ cyclic nucleotide phosphodiesterase. Isolation of low-Km and high Km phosphodiesterase.” Biochem. Biophys. […] Unhydrolyzed cAMP was bound to AGI-X2 resin, and the remaining [^3H]adenosine in the aqueous phase was quantitated by scintillation counting. • PDE2: PDE2 partially purified from human platelets was used. […] Unhydrolyzed cAMP was bound to AGI-X2 resin, and the remaining [^3H]adenosine in the aqueous phase was quantitated by scintillation counting. • PDE3: PDE3 partially purified from human platelets was used. […] Unhydrolyzed cAMP was bound to AGI-X2 resin, and the remaining [^3H]adenosine in the aqueous phase was quantitated by scintillation counting. • PDE4: PDE4 partially purified from human U-937 pronocytic cells was used. […] Unhydrolyzed cAMP was bound to AGI-X2 resin, and the remaining [^3H]adenosine in the aqueous phase was quantitated by scintillation counting. • PDE5: PDE5 partially purified from human platelets was used. […]

SMILES: Cn1cc([S+]([O-])C(Cl)Cl)c(=O)c2ccc(F)cc21 (stereo not shown) [dichloroflosequinan, 3-dichloromethylsulfinyl-7-fluoro-1-methyl-4-quinolone]
- inhibition of PDE1: greater than 50%
